In PubChem BioAssay AID463203 (Broad Institute, 2010):
Active and inactive are the calls of the source.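 Rule for the calls: active = more than half of replicate measurements showing over 20% loss of kinase signal relative to plate controls; inconclusive = some but at most half of replicates over 20% loss; inactive = no replicate over 20% signal loss.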

What follows are compounds tested against Glycogen synthase kinase-3 alpha (Homo sapiens) (UniProt P49840) (assay: concentration-response blocking of human GSK3A – biochemical, luminescence, cell-free homogeneous, retest, dose response (AID 463203)). Settings: GSK-3 alpha enzyme, ADP-Glo luminescence, 60 min.
Glycogen synthase kinase-3 alpha (Homo sapiens), sequence (P49840 whole entry, looked up): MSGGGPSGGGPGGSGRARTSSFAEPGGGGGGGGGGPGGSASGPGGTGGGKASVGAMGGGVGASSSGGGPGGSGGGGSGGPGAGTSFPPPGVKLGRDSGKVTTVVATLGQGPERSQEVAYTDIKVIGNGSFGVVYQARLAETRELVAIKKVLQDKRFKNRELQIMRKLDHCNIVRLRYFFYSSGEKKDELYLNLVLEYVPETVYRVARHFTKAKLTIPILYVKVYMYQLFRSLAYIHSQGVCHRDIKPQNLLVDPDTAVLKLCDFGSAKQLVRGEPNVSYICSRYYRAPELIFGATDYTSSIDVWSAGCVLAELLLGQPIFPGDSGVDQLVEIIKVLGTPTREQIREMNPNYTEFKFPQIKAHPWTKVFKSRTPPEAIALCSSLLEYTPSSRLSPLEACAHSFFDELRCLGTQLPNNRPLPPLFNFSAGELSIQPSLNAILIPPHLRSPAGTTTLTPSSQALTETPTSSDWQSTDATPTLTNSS
For `CN1CCC(=NNC(=O)C(=O)NC2CCCC2)CC1`, the AC50 was > 30 µM (inactive).
`NC(=O)c1cccc(S(=O)(=O)N2CC(c3ccccc3)CC2=O)c1` (centres undefined) was tested, and the AC50 was > 30 µM (inactive).
In the case of `O=C(Oc1cccc(NC(=O)c2ccco2)c1)c1cccc(S(=O)(=O)N2CCCCC2)c1`, the AC50 is reported as > 30 µM (inactive).
In the case of `CC(=O)Oc1cc2c3c(c1)/C(=C1/SC(=S)NC1=O)C(=O)N3C(C)(C)C=C2C`, the AC50 is reported as > 30 µM (inactive).
In the case of `Cc1cc(/C=N/Nc2ccc([N+](=O)[O-])cn2)c(C)n1-c1cccc(C(=O)O)c1`, the AC50 is reported as 14.6 µM.
For `NC(=O)c1cc([N+](=O)[O-])c(Cl)cc1NCc1cccnc1`, the AC50 was 4.43 µM.
In the case of `COCc1nnc(NC(=O)CCN2C(=O)c3ccccc3C2=O)s1`, the AC50 is reported as > 30 µM (inactive).
For `COc1cc(O)cc2c1C(=O)OC(C)CCCC(=O)CCC/C=C\2` (centres undefined), the AC50 was > 30 µM (inactive).
`COc1ccc(C2CC(=O)Nc3n[nH]c(-c4ccccc4)c32)cc1OC` (centres undefined) gave an AC50 of 26.9 µM.
With `Cc1ccnc(NC(=O)CN2C(=O)c3ccccc3S2(=O)=O)c1` the AC50 was > 30 µM (inactive).
In the case of `Cc1ccc(C(=O)N/C(=C\c2ccc(-c3ccc(Cl)cc3)o2)C(=O)NCCCN(C)C)cc1`, the AC50 is reported as > 30 µM (inactive).
In the case of `CCCC(=O)NNC(=O)c1c(O)c2ccccc2[nH]c1=O`, the AC50 is reported as > 30 µM (inactive).
For `Cc1nc(NCC2CCCO2)nc2c1C(=O)CC(C)C2` (centres undefined), the AC50 was > 30 µM (inactive).
For `COc1ccc(Br)cc1C1CC(=O)N2CN(Cc3ccccc3)CSC2=C1C#N` (centres undefined), the AC50 was > 30 µM (inactive).
`Cc1oc2c(Cl)c(Cl)c(O)c(CN(C)C)c2c1C(=O)c1ccc(Cl)cc1` was tested, and the AC50 was 7.71 µM.
With `CC(C)c1c(C(=O)N/N=C/c2cccnc2)nnn1-c1nonc1N` the AC50 was > 30 µM (inactive).
`Cc1ccc(C(=O)N2NC(c3ccc(F)cc3)C3C(=O)N(c4ccc(C)cc4)C(=O)C32)cc1` (centres undefined) was tested, and the AC50 was > 30 µM (inactive).
`O=C(NCc1ccccc1)c1ccc2c(=O)[nH]c3c(C(=O)NCC4CCCO4)sc(=S)n3c2c1` (centres undefined) was tested, and the AC50 was 14 µM.
With `Nc1nc(SCC(=O)Nc2ccc(Oc3ccccc3)cc2)n[nH]1` the AC50 was > 30 µM (inactive).
In the case of `O=C(NCCN1CCN(Cc2ccccc2)CC1)Nc1cc(Cl)cc(Cl)c1`, the AC50 is reported as > 30 µM (inactive).
With `CCc1nnc(NS(=O)(=O)c2ccc(N/C=C(\C=O)c3nc4cc(Cl)ccc4o3)cc2)s1` the AC50 was 9.24 µM.
With `Cc1sc2ncnc(N3CCC(C(=O)Nc4ccc(C#N)cc4)CC3)c2c1C` the AC50 was > 30 µM (inactive).
In the case of `CCOC(=O)c1nnn(-c2nonc2N)c1COc1c(C=O)cccc1OC`, the AC50 is reported as 4.32 µM.
In the case of `Cc1ccc(N=Nc2c(O)ccc3n[nH]nc23)cc1`, the AC50 is reported as 4.23 µM.
In the case of `O=C(COc1ccccc1Cl)NC1CC1`, the AC50 is reported as > 30 µM (inactive).
Work on `O=C(CSc1nnc(SCc2ccccc2Cl)s1)N/N=C/c1ccc(C(=O)O)cc1` yielded an AC50 of 5.94 µM.
`CCOC(=O)CSc1ncnc2c(C(=O)OCC)c3n(c12)CCC3` was tested, and the AC50 was > 30 µM (inactive).
For `CC1(C)Cc2c(sc3c2C2=NCCN2C=N3)CO1`, the AC50 was > 30 µM (inactive).
In the case of `Cc1nc2c(ccc3c2ccc2nc(C)sc23)s1`, the AC50 is reported as > 30 µM (inactive).
In the case of `CN(C)c1ccc(/C=N/NC(=O)c2ccccc2Cl)cc1`, the AC50 is reported as > 30 µM (inactive).
With `CCOC(=O)N1CCC(N2CCN(S(=O)(=O)c3ccc(Cl)cc3)CC2)CC1` the AC50 was > 30 µM (inactive).
`CCSc1ccccc1C(=O)Nc1cccnc1` was tested, and the AC50 was > 30 µM (inactive).
With `Cc1cccc(C(=O)O/N=C(\N)c2cccc([N+](=O)[O-])c2)c1` the AC50 was > 30 µM (inactive).
`Nc1c(CO)nnn1-c1ccccc1` gave an AC50 of 11.4 µM.
With `CSc1ncccc1-c1nc2ccccc2[nH]1` the AC50 was > 30 µM (inactive).
For `CCCCOc1ccc(CSc2nc(C)[nH]c2[N+](=O)[O-])cc1[N+](=O)[O-]`, the AC50 was > 30 µM (inactive).
In the case of `Cc1nnc(SCC(=O)Nc2sc3c(c2C(=O)c2ccccc2)CCCC3)s1`, the AC50 is reported as > 30 µM (inactive).
With `Cc1ccc(/C=N/NC(=O)c2nnn(-c3nonc3N)c2CN(C)C)o1` the AC50 was > 30 µM (inactive).
In the case of `Cc1occc1C(=O)N/N=C/c1ccc(N(C)C)cc1`, the AC50 is reported as 23.1 µM.
With `Clc1ccc(CSc2nncn2-c2ccc3c(c2)OCCO3)cc1` the AC50 was > 30 µM (inactive).
`O=C(N/N=C/c1cccnc1)c1cccc(S(=O)(=O)N2CCCC2)c1` was tested, and the AC50 was > 30 µM (inactive).
`CS(=O)(=O)N1CCN(c2ccc(NC(=O)c3ccc(Br)o3)cc2)CC1` was tested, and the AC50 was > 30 µM (inactive).
In the case of `CC(/C=N/NC(=O)c1nnn(-c2nonc2N)c1C(C)C)=C\c1ccccc1`, the AC50 is reported as > 30 µM (inactive).
For `CC12CCC(C(=O)Nc3ncc([N+](=O)[O-])s3)(OC1=O)C2(C)C` (centres undefined), the AC50 was > 30 µM (inactive).
With `COc1cccc(CC(=S)N2CCOCC2)c1` the AC50 was > 30 µM (inactive).
For `Cc1ccccc1/C=N/Nc1nc2ccccc2[nH]1`, the AC50 was > 30 µM (inactive).
In the case of `COc1ccc(Nc2sc(C(=O)c3ccc(Cl)cc3)c(N)c2C(=O)Nc2ccccc2OC)cc1`, the AC50 is reported as > 30 µM (inactive).
With `O=C1/C(=C/c2ccc(Br)cc2)Oc2cc(O)ccc21` the AC50 was > 30 µM (inactive).
`CCN1CCN(c2nc(Nc3ccccc3F)nc(N)c2[N+](=O)[O-])CC1` was tested, and the AC50 was > 30 µM (inactive).
`CCOC(=O)c1cnc2ccc(OCC)cc2c1N1CCN(c2ccccc2OC)CC1` gave an AC50 of 3.95 µM.
For `O=C(CN(Cc1ccc(F)cc1)C(=O)CCC(=O)Nc1nccs1)NCc1ccc(F)cc1`, the AC50 was 9.59 µM.
`O=C1/C(=C/c2ccc3c(c2)OCO3)Oc2cc(OCC(=O)N3CCC[C@H]3C(=O)O)ccc21` showed an AC50 of 4.35 µM.
In the case of `CCNc1nc(NCC)nc(C(=O)OCCO)n1`, the AC50 is reported as > 30 µM (inactive).
`Cc1sc2ncnc(NCc3ccco3)c2c1C` was tested, and the AC50 was > 30 µM (inactive).
Work on `c1cc2[nH]snc2c2nc(C3CC3)nc12` yielded an AC50 of 20.8 µM.
In the case of `N#CC1=C(N)Oc2n[nH]c(-c3cccnc3)c2C1c1cc(F)ccc1F` (centres undefined), the AC50 is reported as > 30 µM (inactive).
In the case of `Cn1c2ccc(Cl)cc2c2nc3ccccc3nc21`, the AC50 is reported as > 30 µM (inactive).
Work on `Cc1cc(C)n(CCC(=O)N=Nc2c(O)[nH]c3ccc(Br)cc23)n1` yielded an AC50 of 11.5 µM.
For `Cc1cccc(NC(=O)CSc2nnc([C@@H](N)Cc3c[nH]c4ccccc34)o2)c1C`, the AC50 was > 30 µM (inactive).
With `COc1cc(/C=N/NC(=O)c2ccoc2C)ccc1O` the AC50 was > 30 µM (inactive).
For `N#CCCN(Cc1ccccc1)S(=O)(=O)c1cccs1`, the AC50 was > 30 µM (inactive).
`COc1cccc2cc(C(=O)NCc3ccco3)c(=O)oc12` was tested, and the AC50 was > 30 µM (inactive).
`N#CCC(=O)Nc1sc2c(c1C(N)=O)CCCC2` was tested, and the AC50 was 20.2 µM.
For `NC(=O)c1cc([N+](=O)[O-])ccc1NCc1cccc(N)c1`, the AC50 was 15.6 µM.
With `Nc1nonc1-n1nnc(C(=O)N/N=C/c2cccnc2)c1-c1cccs1` the AC50 was 1.03 µM.
In the case of `O=C(O)c1cn(-c2ccccc2)nc1-c1cccnc1`, the AC50 is reported as > 30 µM (inactive).
`CCOc1ccc(-c2c(C(=O)N/N=C(\C)c3cccnc3)nnn2-c2nonc2N)cc1` was tested, and the AC50 was > 30 µM (inactive).
With `CCOC(=O)N1CCc2c(sc3nc4n(c(=O)c23)N=C(c2ccc(OC)cc2)CS4)C1` the AC50 was > 30 µM (inactive).
`N#Cc1c(-c2ccncc2)c2c([nH]c1=O)-c1ccccc1OC2` was tested, and the AC50 was > 30 µM (inactive).
With `CCOC(=O)c1c(NC(=S)N2CCOCC2)sc2c1CCN(C(=O)OCC)C2` the AC50 was > 30 µM (inactive).
Work on `Nc1nonc1-n1nnc(C(=O)N/N=C\c2cccc(Cl)c2)c1CN1CCOCC1` yielded an AC50 of 15.2 µM.
With `Nc1nc(N)nc(-c2cc([N+](=O)[O-])ccc2O)n1` the AC50 was 2.41 µM.
In the case of `N#CC1=C2SCN(c3ccc(F)cc3)CN2C(=O)CC1c1cccc(F)c1` (centres undefined), the AC50 is reported as 29.4 µM.
For `C/C(=N\NC(=O)c1nnn(-c2nonc2N)c1-c1cccs1)c1ccncc1`, the AC50 was 1.02 µM.
`CC1=C(C(=O)OCc2ccc3c(c2)OCO3)C(c2ccc(F)cc2)NC(=O)N1` (centres undefined) was tested, and the AC50 was 20.3 µM.
Work on `NC(=O)c1cc(Br)cc2c3c([nH]c12)CCCC3` yielded an AC50 of 9.98 µM.
In the case of `CCOC(=O)c1c(NC(=O)C2CC2)sc(C)c1CC`, the AC50 is reported as > 30 µM (inactive).
With `O=[N+]([O-])c1ccc(COc2ccccc2/C=N/O)cc1` the AC50 was > 30 µM (inactive).
For `COc1ccc(/C=C2\Oc3cc(OCC(=O)N4CCC[C@H]4C(=O)O)ccc3C2=O)cc1OC`, the AC50 was > 30 µM (inactive).
With `CCC(Oc1ccccc1)C(=O)Nc1ncc([N+](=O)[O-])s1` (centres undefined) the AC50 was > 30 µM (inactive).
`CCOC(=O)c1cccnc1NC(=O)c1ccncc1` was tested, and the AC50 was > 30 µM (inactive).
For `CCCCc1ccc(NC(=O)N[C@@H](C)C(=O)O)cc1`, the AC50 was > 30 µM (inactive).
With `Cc1ccc(S(=O)(=O)Nc2cc(Cl)c(O)c3ncccc23)cc1` the AC50 was > 30 µM (inactive).
`O=C1NC(=Nc2ccccc2Cl)S/C1=C\c1cccc([N+](=O)[O-])c1O` was tested, and the AC50 was 24 µM.
`COc1ccccc1N/C=C/c1onc(C)c1[N+](=O)[O-]` was tested, and the AC50 was > 30 µM (inactive).
Compound `Cc1cccc(C(=O)Nc2cccc(C(=O)N/N=C/c3ccccn3)c2)c1` has an AC50 of 23.3 µM.
`CCOC(=O)C1CCN(c2c(C(=O)c3ccccc3)cnc3ccc(Cl)cc23)CC1` was tested, and the AC50 was > 30 µM (inactive).
For `CC(C)(C)c1cc(-c2nc(N)nc(N)n2)c(O)c(C(C)(C)C)c1`, the AC50 was > 30 µM (inactive).
In the case of `c1ccc(N2CCN(c3nc4ccccc4n4cnnc34)CC2)cc1`, the AC50 is reported as > 30 µM (inactive).
`O=C(COC(=O)Cc1ccc(F)cc1)Nc1ccc(Cl)cn1` gave an AC50 of 14.1 µM.
In the case of `COc1cccc(Cn2nnc(C(=O)Nc3cc(Cl)ccc3OC)c2N)c1`, the AC50 is reported as > 30 µM (inactive).
For `O=C(c1ccco1)c1cn(CC(=O)N2CCCCC2)c2ccccc12`, the AC50 was > 30 µM (inactive).
In the case of `C=C(C)CSc1nnc([C@@H](N)Cc2c[nH]c3ccccc23)o1`, the AC50 is reported as > 30 µM (inactive).
`COc1cccc(-n2c(SCC(N)=O)nnc2-c2ccco2)c1` was tested, and the AC50 was > 30 µM (inactive).
`Clc1ccc(Nc2ncn[nH]2)cc1` was tested, and the AC50 was > 30 µM (inactive).
With `Cc1cc(C)c(NC(=O)C2CCCN2CCOC(=O)c2cccc([N+](=O)[O-])c2)c(C)c1` (centres undefined) the AC50 was 13.6 µM.
For `CC(/C=N/NC(=O)c1nnn(-c2nonc2N)c1C(C)C)=C\c1ccco1`, the AC50 was > 30 µM (inactive).
In the case of `O=C(Nc1nnc(-c2ccco2)s1)C1CCCCC1`, the AC50 is reported as > 30 µM (inactive).
For `COc1ccc(-c2cc(=O)c3ccccc3s2)cc1`, the AC50 was > 30 µM (inactive).
In the case of `CC(=O)Nc1ccc(Oc2ccc3c(c2)C(=O)NC3=O)cc1`, the AC50 is reported as 25 µM.
For `CCOc1cccc(-c2c(C(=O)N/N=C/c3ccncc3)nnn2-c2nonc2N)c1`, the AC50 was 2.13 µM.
For `O=C(N/N=C/c1ccc(Cl)c(Cl)c1)c1ccc2nc[nH]c2c1`, the AC50 was > 30 µM (inactive).
In the case of `CCCNC(=O)NC(C(=O)OC)C12CC3CC(CC(C3)C1)C2` (centres undefined), the AC50 is reported as > 30 µM (inactive).
`COc1cccc(-c2nc(-c3ccccc3)[nH]c(=O)c2C#N)c1` was tested, and the AC50 was > 30 µM (inactive).
